Test results taken from ChEMBL document CHEMBL5579895, “Discovery of TYRA-300: First Oral Selective FGFR3 Inhibitor for the Treatment of Urothelial Cancers and Achondroplasia” (J Med Chem, 2024).

How the values were obtained:
[1] = Inhibition of recombinant BCR/FGFR1 (unknown origin) transduced in mouse BaF3 cells incubated for 48 hrs by Cell Titer Glo assay; type: cell-based; conditions: BaF3, 48 h
RT112/84 [2] = test: animal or person; type: functional, Homo sapiens; conditions: Mus musculus, RT112/84, 504 h, route po, time 21 day, read-out: TGI
Description: Antitumor activity against human RT112/84 cells harboring FGFR3/TACC3 fusion xenografted in Balb/c nude mouse model at 12.5 mg/kg, po bid treated for 21 days relative to control

[3] = Inhibition of recombinant BCR/FGFR4 (unknown origin) transduced in mouse BaF3 cells incubated for 48 hrs by Cell Titer Glo assay; type: cell-based; conditions: BaF3, 48 h
[4] = Inhibition of recombinant BCR/FGFR2 (unknown origin) transduced in mouse BaF3 cells incubated for 48 hrs by Cell Titer Glo assay; type: cell-based; conditions: BaF3, 48 h
KG-1 = test: Inhibition of cell viability in human KG-1 cells harboring FGFR1-fusion incubated for 72 to 120 hrs by Cell Titer Glo assay; type: functional, cell-based
RT112/84 [5] = test: animal or person; type: functional, Homo sapiens; conditions: Mus musculus, RT112/84, 504 h, route po, time 21 day, read-out: TGI; remark: listed apart in the source
Description: Antitumor activity against human RT112/84 cells harboring FGFR3 V555M mutant xenografted in Balb/c nude mouse model at 12.5 mg/kg, po bid treated for 21 days relative to control

[6] = Inhibition of recombinant FGFR3/BAIAP2L1 (unknown origin) transduced in mouse BaF3 cells incubated for 48 hrs by Cell Titer Glo assay; type: cell-based; conditions: BaF3, 48 h
RT-4 = test: Inhibition of cell viability in human RT-4 cells harboring FGFR3/TACC3 fusion incubated for 72 to 120 hrs by Cell Titer Glo assay; type: functional, cell-based
[7] = Inhibition of cell viability in human UMUC14 cells harboring FGFR3 V555M mutant incubated for 72 to 120 hrs by Cell Titer Glo assay; type: functional, cell-based
RT112/84 [8] = test: cells; type: functional, cell-based; conditions: Homo sapiens
Description: Inhibition of cell viability in human RT112/84 cells harboring FGFR3/TACC3 fusion incubated for 72 to 120 hrs by Cell Titer Glo assay

[9] = Inhibition of cell viability in human UMUC14 cells harboring FGFR3 S249C mutant incubated for 72 to 120 hrs by Cell Titer Glo assay; type: functional, cell-based
DMS-114 = test: Inhibition of cell viability in human DMS-114 cells harboring FGFR1-amplification incubated for 72 to 120 hrs by Cell Titer Glo assay; type: functional, cell-based
RT112/84 [10] = test: cells; type: functional, cell-based; conditions: Homo sapiens; remark: listed apart in the source
Description: Inhibition of cell viability in human RT112/84 cells harboring FGFR3 V555M mutant incubated for 72 to 120 hrs by Cell Titer Glo assay

[11] = Stability in human hepatocytes assessed as half life at 1 uM incubated upto 180 mins by LC-MS/MS analysis; type: ADME, cell-based, Hepatocyte
RT112/84 [12] = test: Antitumor activity against human RT112/84 cells harboring FGFR3/TACC3 fusion xenografted in Balb/c nude mouse model at 15 mg/kg, po bid treated for 21 days relative to control; type: functional; conditions: RT112/84, 504 h, time 21 day, read-out: TGI

| IC50 (RT112/84 [8]) | IC50 (RT112/84 [10]) | half-life at 1 µM [11] | SMILES | IC50 [1] | inhibition in vivo at 12.5 mg/kg (RT112/84 [2]) | IC50 [3] | IC50 [4] | IC50 (KG-1) | inhibition in vivo at 12.5 mg/kg (RT112/84 [5]) | IC50 [6] | IC50 (RT-4) | IC50 [7] | IC50 [9] | IC50 (DMS-114) | inhibition in vivo at 15 mg/kg (RT112/84 [12]) |
| --- | --- | --- | --- | --- | --- | --- | --- | --- | --- | --- | --- | --- | --- | --- | --- |
| 38 nM | 89 nM | 18 min | C[C@@H](Oc1ccc2[nH]nc(-c3ccc(N4CC5(C4)CN(S(C)(=O)=O)C5)nc3)c2c1)c1c(Cl)cnnc1Cl | 179 nM |  |  | 67 nM | 193 nM |  | 8.6 nM | 144 nM |  | 1580 nM | 3000 nM |  |
| 8.3 nM | 17 nM | 86 min | C[C@@H](Oc1ccc2[nH]nc(-c3ccc(N4CC5(CCS(=O)(=O)CC5)C4)nc3)c2c1)c1c(Cl)cncc1Cl | 129 nM |  | 169 nM | 132 nM | 332 nM |  | 11 nM |  |  | 10 nM |  | 76% |

| SMILES | IC50 (RT112/84 [8]) | IC50 (RT112/84 [10]) | half-life at 1 µM [11] | IC50 [1] | inhibition in vivo at 12.5 mg/kg (RT112/84 [2]) | IC50 [3] | IC50 [4] | IC50 (KG-1) | inhibition in vivo at 12.5 mg/kg (RT112/84 [5]) | IC50 [6] | IC50 (RT-4) | IC50 [7] | IC50 [9] | IC50 (DMS-114) | inhibition in vivo at 15 mg/kg (RT112/84 [12]) |
| --- | --- | --- | --- | --- | --- | --- | --- | --- | --- | --- | --- | --- | --- | --- | --- |
| COc1cc(OC)cc(N(CCNC(C)C)c2ccc3ncc(-c4cnn(C)c4)nc3c2)c1 [ERDAFITINIB] | 3.6 nM | 2150 nM |  | 5.2 nM | 73% | 11 nM | 3.8 nM | 2.1 nM | 12% | 2.6 nM | 4.4 nM | > 3000 nM | 3.8 nM | 11 nM |  |
